The text below walks through data of US20230146395A1, “Substituted Pyrimidines and Uses Thereof” (Verge Analytics, Inc., priority 2020, published 2023).

Structures can show the parent of a compound that is named as a salt.

The target in this experiment is T1, Full length human recombinant PIKFYVE (Homo sapiens, UniProt Q9Y2I7).
T1 construct: Full length human recombinant PIKFYVE; purchased Carna Biosciences (Kobe, Japan); host or cells: baculovirus expression system
T1 sequence (Q9Y2I7 whole entry): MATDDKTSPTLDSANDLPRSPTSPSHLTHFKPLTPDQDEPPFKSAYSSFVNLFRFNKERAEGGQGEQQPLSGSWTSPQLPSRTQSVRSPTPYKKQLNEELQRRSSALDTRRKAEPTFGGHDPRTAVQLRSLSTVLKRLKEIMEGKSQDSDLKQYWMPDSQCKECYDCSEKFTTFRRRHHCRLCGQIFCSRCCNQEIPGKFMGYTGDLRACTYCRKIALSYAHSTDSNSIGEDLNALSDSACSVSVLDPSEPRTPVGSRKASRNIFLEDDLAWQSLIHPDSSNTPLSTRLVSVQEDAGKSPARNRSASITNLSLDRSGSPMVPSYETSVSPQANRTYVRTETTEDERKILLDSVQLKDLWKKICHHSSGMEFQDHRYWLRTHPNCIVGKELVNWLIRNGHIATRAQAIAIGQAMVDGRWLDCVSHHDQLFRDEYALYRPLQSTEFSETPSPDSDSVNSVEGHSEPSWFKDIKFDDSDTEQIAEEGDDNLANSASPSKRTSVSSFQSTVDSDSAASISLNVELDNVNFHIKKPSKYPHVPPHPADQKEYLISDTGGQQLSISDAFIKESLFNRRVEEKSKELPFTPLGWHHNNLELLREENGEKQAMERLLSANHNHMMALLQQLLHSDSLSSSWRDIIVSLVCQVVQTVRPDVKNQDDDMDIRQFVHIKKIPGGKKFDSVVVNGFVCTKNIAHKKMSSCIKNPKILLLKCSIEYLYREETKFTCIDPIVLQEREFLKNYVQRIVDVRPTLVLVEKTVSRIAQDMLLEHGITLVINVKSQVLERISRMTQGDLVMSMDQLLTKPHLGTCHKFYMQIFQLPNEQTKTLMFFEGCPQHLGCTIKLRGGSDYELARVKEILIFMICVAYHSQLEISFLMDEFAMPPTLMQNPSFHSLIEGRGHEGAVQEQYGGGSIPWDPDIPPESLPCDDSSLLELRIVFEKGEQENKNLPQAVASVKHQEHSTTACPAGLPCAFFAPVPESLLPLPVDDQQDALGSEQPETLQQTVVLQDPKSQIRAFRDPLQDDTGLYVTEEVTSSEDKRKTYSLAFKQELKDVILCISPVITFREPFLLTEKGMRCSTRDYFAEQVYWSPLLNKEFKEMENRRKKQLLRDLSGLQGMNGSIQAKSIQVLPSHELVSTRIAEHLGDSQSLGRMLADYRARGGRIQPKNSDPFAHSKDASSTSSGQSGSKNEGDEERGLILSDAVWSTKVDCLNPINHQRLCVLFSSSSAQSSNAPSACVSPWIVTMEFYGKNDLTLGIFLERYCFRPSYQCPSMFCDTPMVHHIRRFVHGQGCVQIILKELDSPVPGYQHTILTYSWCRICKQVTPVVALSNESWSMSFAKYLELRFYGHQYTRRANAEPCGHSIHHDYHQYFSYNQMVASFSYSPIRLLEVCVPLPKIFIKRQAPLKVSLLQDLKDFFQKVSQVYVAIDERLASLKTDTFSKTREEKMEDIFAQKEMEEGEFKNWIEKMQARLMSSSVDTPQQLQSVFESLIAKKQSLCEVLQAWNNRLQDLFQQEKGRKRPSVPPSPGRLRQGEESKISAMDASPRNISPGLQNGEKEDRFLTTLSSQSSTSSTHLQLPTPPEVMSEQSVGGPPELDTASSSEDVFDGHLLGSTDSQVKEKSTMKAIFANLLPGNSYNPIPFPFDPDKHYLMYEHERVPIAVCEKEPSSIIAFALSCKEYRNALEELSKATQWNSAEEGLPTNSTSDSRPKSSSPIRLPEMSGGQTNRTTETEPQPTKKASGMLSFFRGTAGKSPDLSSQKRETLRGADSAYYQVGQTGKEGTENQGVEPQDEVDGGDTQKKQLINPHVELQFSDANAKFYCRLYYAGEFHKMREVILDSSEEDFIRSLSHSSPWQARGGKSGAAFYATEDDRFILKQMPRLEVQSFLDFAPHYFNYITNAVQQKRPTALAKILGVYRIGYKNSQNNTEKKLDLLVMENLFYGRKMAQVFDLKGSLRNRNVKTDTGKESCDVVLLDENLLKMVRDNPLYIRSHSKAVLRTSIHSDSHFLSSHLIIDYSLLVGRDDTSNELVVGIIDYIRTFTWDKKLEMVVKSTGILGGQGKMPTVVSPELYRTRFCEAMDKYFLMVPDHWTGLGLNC
The experiment can be described thus: Inhibition of PIKfyve (microfluidic electrophoresis kinase assay, PI3P/PS substrate). Format: biochemical. Conditions: 12 concentrations. In a few lines:
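GST-tagged full-length human PIKFYVE (baculovirus; 2 nM) with fluorescent PI3P/PS (1 μM PI3P) and […] in pH 7.5 HEPES with Mg2+/Mn2+, 1% DMSO, 3 h at room temperature. PI(3,5)P product/substrate ratio read by microfluidic electrophoresis; 12-point % inhibition versus no-enzyme and DMSO controls.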
One may read the IC50 as the concentration needed to halve the response being measured. For the compound `CC(=O)NCCn1nc(-c2cc3nc(-n4cc(-c5cccc(C)c5)cn4)nc(N4CCOCC4)c3o2)cc1C` [Compound 197, N-[2-[5-methyl-3-[4-morpholino-2-[4-(m-tolyl)pyrazol-1-yl]furo[3,2-d]pyrimidin-6-yl]pyrazol-1-yl]ethyl]acetamide], the IC50 is 0.7 nM. As for `CN1CCC(NC(=O)c2cc3nc(-n4cc(-c5ccccc5)cn4)nc(N4CCOCC4)c3o2)C1` (centres unmarked) [Compound 170, N-(1-methylpyrrolidin-3-yl)-4-morpholino-2-(4-phenylpyrazol-1-yl)furo[3,2-d]pyrimidine-6-carboxamide], the 50% inhibitory concentration (IC50) worked out at 45.5 nM. The result for `Cc1cccc(-c2cc(Nc3nc(N4CCOCC4)c4oc(-c5ccccn5)cc4n3)[nH]n2)c1` [Compound 27, 4-morpholino-N-[5-(m-tolyl)-1H-pyrazol-3-yl]-6-(2-pyridyl)furo[3,2-d]pyrimidin-2-amine, hydrogen chloride] reads 1 nM; that for `CN1CCC(c2cc3nc(Nc4cc(-c5ccncc5)n[nH]4)nc(N4CCOCC4)c3o2)CC1` [Compound 34, 6-(1-methylpiperidin-4-yl)-4-morpholino-N-(3-(pyridin-4-yl)-1H-pyrazol-5-yl)furo[3,2-d]pyrimidin-2-amine hydrochloride], 10 nM; that for `CN(C(=O)c1cc2nc(Nc3cc(-c4ccccc4)[nH]n3)nc(N3CCOCC3)c2o1)C1CC1` [Compound 60, N-cyclopropyl-N-methyl-4-morpholino-2-[(5-phenyl-1H-pyrazol-3-yl)amino]furo[3,2-d]pyrimidine-6-carboxamide, hydrogen chloride], 70.2 nM.

As for `c1ccc(-c2cc(Nc3nc(N4CCOCC4)c4oc(CN5CCCCC5)cc4n3)[nH]n2)cc1` [Compound 13], the IC50 was 545 nM. The result for `CC(C)c1cc(Nc2nc(N3CCOCC3)c3oc(-c4ccncc4)cc3n2)[nH]n1` [Compound 77, N-(5-isopropyl-1H-pyrazol-3-yl)-4-morpholino-6-(pyridin-4-yl)furo[3,2-d]pyrimidin-2-amine, hydrogen chloride] reads 175 nM. The result for `Cc1cccc(-c2ccn(-c3nc(N4CCOCC4)c4oc(-c5nccs5)cc4n3)n2)c1` [Compound 203, 4-morpholino-2-[3-(m-tolyl)pyrazol-1-yl]-6-thiazol-2-yl-furo[3,2-d]pyrimidine] reads 1.9 nM.

Take `COCCNC(=O)c1cc2nc(Nc3cc(-c4ccccc4)[nH]n3)nc(N3CCOCC3)c2o1` [Compound 140, N-(2-methoxyethyl)-4-morpholino-2-((5-phenyl-1H-pyrazol-3-yl)amino)furo[3,2-d]pyrimidine-6-carboxamide]: the half-inhibitory concentration (IC50) turned out to be 43 nM. The result for `Cc1cc(-c2oc3c(N4CCOCC4)nc(-n4ccc(-c5ccccc5)n4)nc3c2C)[nH]n1` [Compound 182, 7-methyl-6-(3-methyl-1H-pyrazol-5-yl)-4-morpholino-2-(3-phenylpyrazol-1-yl)furo[3,2-d]pyrimidine] reads 84.2 nM; that for `Cn1ccc(-c2cc3nc(-n4ccc(-c5ccccc5)n4)nc(N4CCOCC4)c3o2)n1` [Compound 191, 6-(1-methylpyrazol-3-yl)-4-morpholino-2-(3-phenylpyrazol-1-yl)furo[3,2-d]pyrimidine], 51.9 nM; that for `Cn1ccc(-c2cc3nc(-n4ccc(Br)n4)nc(N4CCOCC4)c3o2)n1` [Compound 195, 2-(3-bromopyrazol-1-yl)-6-(1-methylpyrazol-3-yl)-4-morpholino-furo[3,2-d]pyrimidine], 907 nM. The result for `O=C(NC1CCOCC1)c1cc2nc(-n3cc(-c4ccccc4)cn3)nc(N3CCOCC3)c2o1` [Compound 171, 4-morpholino-2-(4-phenylpyrazol-1-yl)-N-tetrahydropyran-4-yl-furo[3,2-d]pyrimidine-6-carboxamide] reads 39.2 nM; that for `CCNC(=O)c1cc2nc(-n3cc(-c4cccc(C)c4)cn3)nc(N3CC(F)(F)OC(F)(F)C3)c2o1` [Compound 134, N-ethyl-4-(2,2,6,6-tetrafluoromorpholino)-2-(4-(m-tolyl)-1H-pyrazol-1-yl)furo[3,2-d]pyrimidine-6-carboxamide], above 20000 nM.
